Where two headings read alike, the source gives them in different places.
T1: PPARα (Homo sapiens, UniProt Q07869)
T1 construct: expressed in transfected cells; host or cells: CV-1 (African green monkey kidney)
T1 sequence (Q07869 1-468): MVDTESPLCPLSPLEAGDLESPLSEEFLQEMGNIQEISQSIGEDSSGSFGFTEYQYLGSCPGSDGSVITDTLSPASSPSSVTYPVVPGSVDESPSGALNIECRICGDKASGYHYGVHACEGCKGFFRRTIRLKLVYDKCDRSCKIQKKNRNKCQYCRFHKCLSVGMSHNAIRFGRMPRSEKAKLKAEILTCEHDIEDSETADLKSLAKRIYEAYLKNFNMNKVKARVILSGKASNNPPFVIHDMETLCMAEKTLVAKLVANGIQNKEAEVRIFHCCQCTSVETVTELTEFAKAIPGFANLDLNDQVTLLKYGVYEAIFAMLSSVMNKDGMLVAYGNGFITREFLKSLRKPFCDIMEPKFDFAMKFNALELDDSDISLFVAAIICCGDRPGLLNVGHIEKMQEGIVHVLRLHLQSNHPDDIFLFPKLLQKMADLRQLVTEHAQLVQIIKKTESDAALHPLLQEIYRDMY
T1 sequence (P19793 1-462 partner): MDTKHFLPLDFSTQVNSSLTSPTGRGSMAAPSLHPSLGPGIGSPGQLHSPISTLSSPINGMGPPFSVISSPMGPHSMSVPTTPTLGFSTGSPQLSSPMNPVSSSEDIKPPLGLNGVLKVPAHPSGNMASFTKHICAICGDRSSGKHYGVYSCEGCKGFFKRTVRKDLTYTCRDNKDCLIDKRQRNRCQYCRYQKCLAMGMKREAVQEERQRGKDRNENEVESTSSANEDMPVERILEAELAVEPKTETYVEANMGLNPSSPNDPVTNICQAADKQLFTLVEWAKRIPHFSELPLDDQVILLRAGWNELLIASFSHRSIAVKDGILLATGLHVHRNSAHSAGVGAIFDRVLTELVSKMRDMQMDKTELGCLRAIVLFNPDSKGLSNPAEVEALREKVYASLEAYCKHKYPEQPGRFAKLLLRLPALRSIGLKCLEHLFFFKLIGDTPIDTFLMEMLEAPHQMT


What was measured:
ERRγ2 = details: stated as known property, cited from earlier work
PPARα = biological target: T1, PPARα; test: Reporter gene assay, ERRγ3 coexisted with PPARα, pGVP2-PPRE1 in CV-1 cells; assay type: cell-based; details: 10^−5 M bezafibrate, FIG. 24
Experimental: Transfection was performed as follows: CV-1 cells were resuspended in DMEM supplemented with 10% fetal bovine serum, 2000 U/l of penicillin G, and 100 mg/l of streptomycin to a concentration of 2×10^5 cells/2.5 ml. This was then seeded to a 6-well plate at 2.5 ml per well, and incubated for 18-24 hours in a CO2 incubator at 37° C. and 5% CO2. 1 μg of each of the expression plasmids for the transcription factors, the luciferase reporter plasmid, and another luciferase reporter plasmid used for normalization of the measured values (pRL-TK), were dissolved in Opti-MEM (Gibco BRL), to a total of 150 μl. […] Luciferase activity was measured using the Dual-Luciferase™ Reporter Assay System (Promega). […] The protocol for measurement was as follows: 50 μl of Luciferase Assay Reagent II was added to each well, stirred for 0.3 seconds, and measured for one second. 50 μl of Stop&Glo™ Reagent was then added, stirred for 0.3 seconds, and measured for one second. The measured values for firefly luciferase activity were corrected by dividing by the value for the Renilla luciferase activity, the internal control. Average values and standard errors were calculated from triplicate samples.
The effect of ligands on the function of ERRγ3 in enhancing the transcriptional activation function of peroxisome proliferator activated receptor (PPAR) α, β, or γ was evaluated using the reporter gene assay (FIG. 24). […]

Chain of ERRγ2 (P62508 whole entry): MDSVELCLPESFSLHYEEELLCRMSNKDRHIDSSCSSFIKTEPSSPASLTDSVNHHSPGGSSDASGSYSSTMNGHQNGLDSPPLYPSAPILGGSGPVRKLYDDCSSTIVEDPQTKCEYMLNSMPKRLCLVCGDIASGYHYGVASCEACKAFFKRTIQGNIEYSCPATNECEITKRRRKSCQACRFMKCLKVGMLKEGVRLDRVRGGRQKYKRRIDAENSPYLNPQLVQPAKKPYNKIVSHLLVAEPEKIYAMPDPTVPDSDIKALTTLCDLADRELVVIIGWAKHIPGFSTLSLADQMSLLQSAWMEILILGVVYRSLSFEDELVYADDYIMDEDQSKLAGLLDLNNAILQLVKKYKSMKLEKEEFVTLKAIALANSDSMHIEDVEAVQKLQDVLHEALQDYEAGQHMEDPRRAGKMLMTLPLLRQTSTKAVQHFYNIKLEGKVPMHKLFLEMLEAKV

| Molecule | inhibition of the transcriptional activation function of ERRγ2 (ERRγ2) | inhibition of the transcriptional activation function of ERRγ2 (ERRγ2; listed as 4-OHT) | modifying effect on the transcriptional stimulation activity of PPARα (PPARα) |
| --- | --- | --- | --- |
| 4-hydroxytamoxifen [reference compound] | known to inhibit ERRγ2 activity | inhibiting their transcriptional activation function |  |
| ERRγ3: novel ERRγ isoform, nuclear receptor protein of 396 amino acids (SEQ ID NO: 2) lacking part of the DNA binding domain (protein, listed as Homo sapiens) MSNKDRHIDSSCSSFIKTEPSSPASLTDSVNHHSPGGSSDASGSYSSTMNGHQNGLDSPPLYPSAPILGGSGPVRKLYDDCSSTIVEDPQTKCEYMLNSMPKRLCLVCGDIASGYHYGVASCEACKAFFKRTIQGVRLDRVRGGRQKYKRRIDAENSPYLNPQLAQPAKKPYNKIVSHLLVAEPEKIYAMPDPTVPDSDIKALTTLCDLADRELVVIIGWAKHIPGFSTLSLADQMSLLQSAWMEILILGVVYRSLSFEDELVYADDYIMDEDQSKLAGLLDLNNAILQLVKKYKSMKLEKEEFVTLKAIALANSDSMHIEDVEAVQKLQDVLHEALQDYEAGQHMEDPRRAGKMLMTLPLLRQTSTKAVQHFYNIKLEGKVPMHKLFLEMLEAKV |  |  | did not show any significant modifying effect |
